Measurements from patent US20230126361A1, “METHODS OF CONTROLLING OR PREVENTING INFESTATION OF PLANTS BY THE PHYTOPATHOGENIC MICROORGANISM CORYNESPORA CASSIICOLA, […] AND/OR […]” (SYNGENTA CROP PROTECTION AG, priority 2020, published 2023).

Columns and labels:
Type in all cases: cell-based
Details in all cases: PDB, 24° C., 3-4 days, 620 nm
[1] = tested on: Corynespora cassiicola; assay: Corynespora cassiicola (target leaf spot) liquid culture growth inhibition
Experimental: Conidia of the fungus from cryogenic storage were directly mixed into nutrient broth (PDB potato dextrose broth). A DMSO solution of the test compounds was placed into a microtiter plate (96-well format) and the nutrient broth containing the fungal spores was added to it. The test plates were incubated at 24° C. and the inhibition of growth (% control of Corynespora cassiicola) was determined photometrically after 3-4 days at 620 nm. The activity of a compound is derived by comparing the inhibition of growth in the treated test solution to the growth in the untreated check. […]

[2] = tested on: Cercospora sojina; assay: Cercospora sojina (frogeye leaf spot) liquid culture growth inhibition
Experimental: (§1) Conidia of the fungus from cryogenic storage were directly mixed into nutrient broth (PDB potato dextrose broth). A DMSO solution of the test compounds was placed into a microtiter plate (96-well format) and the nutrient broth containing the fungal spores was added to it. The test plates were incubated at 24° C. and the inhibition of growth was determined photometrically after 3-4 days at 620 nm.

[3] = tested on: Cercospora kikuchii; assay: Cercospora kikuchii (leaf blight) liquid culture growth inhibition
Experimental: as §1

Cc1nc2c(F)c(F)ccc2cc1Oc1cccc(F)c1C(C)(C)O [2-[2-(7,8-difluoro-2-methylquinolin-3-yloxy)-6-fluorophenyl]propan-2-ol]
% control of Corynespora cassiicola ([1]; 0.027 ppm): at least 20% | % control of Corynespora cassiicola ([1]; 0.25 ppm): at least 20% | % control of Corynespora cassiicola ([1]; 0.74 ppm): at least 50% | % control of Corynespora cassiicola ([1]; 2.2 ppm): at least 70% | % control of Corynespora cassiicola ([1]; 6.7 ppm): at least 90% | % control of Cercospora sojina ([2]; 0.25 ppm): at least 20% | % control of Cercospora sojina ([2]; 0.74 ppm): at least 20% | % control of Cercospora sojina ([2]; 2.2 ppm): at least 50% | % control of Cercospora sojina ([2]; 6.7 ppm): at least 50% | % control (Example 3: Cercospora kikuchii) ([3]; 0.74 ppm): at least 20% | % control of Cercospora kikuchii ([3]; 2.2 ppm): at least 50% | % control of Cercospora kikuchii ([3]; 6.7 ppm): at least 50%
